Target: T1, hVR1 (Homo sapiens, UniProt Q8NER1)
T1 construct: expressed in transfected cells; host or cells: HEK293
Assay: Human VR1 (hVR1) Functional Assay (FLIPR intracellular calcium, capsaicin challenge)
Format: cell-based
Settings: capsaicin 0.030 μM, HEK293 cells expressing hVR1; for inhibition at 1 µM: test concentration 1 μM

T1 sequence (Q8NER1 whole entry): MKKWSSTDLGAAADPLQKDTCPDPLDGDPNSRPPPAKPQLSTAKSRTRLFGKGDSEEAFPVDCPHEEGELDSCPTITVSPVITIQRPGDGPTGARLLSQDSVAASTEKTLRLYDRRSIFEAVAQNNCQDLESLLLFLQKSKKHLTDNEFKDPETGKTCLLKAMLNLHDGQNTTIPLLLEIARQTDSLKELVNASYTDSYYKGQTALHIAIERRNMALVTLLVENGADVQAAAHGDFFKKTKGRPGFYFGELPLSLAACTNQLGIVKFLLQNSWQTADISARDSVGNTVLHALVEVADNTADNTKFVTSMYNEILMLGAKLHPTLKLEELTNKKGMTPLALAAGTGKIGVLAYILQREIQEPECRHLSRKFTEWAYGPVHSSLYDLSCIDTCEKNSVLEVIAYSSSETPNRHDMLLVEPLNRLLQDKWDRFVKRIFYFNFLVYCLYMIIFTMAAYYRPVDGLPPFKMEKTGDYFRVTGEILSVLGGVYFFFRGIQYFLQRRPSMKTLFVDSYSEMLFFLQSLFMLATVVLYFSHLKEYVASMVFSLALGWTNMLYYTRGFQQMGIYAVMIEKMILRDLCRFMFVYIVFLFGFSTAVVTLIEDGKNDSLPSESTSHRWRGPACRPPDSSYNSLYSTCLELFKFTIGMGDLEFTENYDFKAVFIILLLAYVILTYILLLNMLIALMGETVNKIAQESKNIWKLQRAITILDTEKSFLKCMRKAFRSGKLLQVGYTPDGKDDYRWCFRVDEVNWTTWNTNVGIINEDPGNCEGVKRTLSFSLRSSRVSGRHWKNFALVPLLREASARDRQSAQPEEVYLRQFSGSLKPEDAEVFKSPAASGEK

SMILES	IC50 [nM]	inhibition at 1 µM [%]
NC(=O)c1ccccc1-c1ccc2[nH]c(/C=C/c3ccc(S(=O)(=O)C(F)(F)F)cc3)nc2c1 [Cpd 44, (E)-2-{2-[2-(4-trifluoromethanesulfonyl-phenyl)-vinyl]-1H-benzimidazol-5-yl}-benzamide]	300	95
CC(C)(C)OC(=O)Nc1ccccc1-c1ccc2[nH]c(C3CC3c3ccc(C(F)(F)F)cc3)nc2c1 (centres unmarked) [Cpd 473, (2-{2-[2-(4-trifluoromethyl-phenyl)-cyclopropyl]-1H-benzimidazol-5-yl}-phenyl)-carbamic acid tert-butyl ester]	> 500	
CNS(=O)(=O)c1ccccc1-c1ccc2[nH]c(/C=C/c3ccc(C#N)cc3)nc2c1 [Cpd 451, (E)-2-{2-[2-(4-cyano-phenyl)-vinyl]-1H-benzimidazol-5-yl}-N-methyl-benzenesulfonamide]	28	101
CN(C)c1ccc(/C=C/c2nc3cc(-c4ccccc4NS(C)(=O)=O)ccc3[nH]2)cc1 [Cpd 413, (E)-N-(2-{2-[2-(4-dimethylamino-phenyl)-vinyl]-1H-benzimidazol-5-yl}-phenyl)-methanesulfonamide]	240	82
NS(=O)(=O)c1ccccc1-c1ccc2[nH]c(/C=C/c3ccccc3Br)nc2c1 [Cpd 366, (E)-2-{2-[2-(2-bromo-phenyl)-vinyl]-1H-benzimidazol-5-yl}-benzenesulfonamide]	35	99
CNS(=O)(=O)c1ccccc1-c1ccc2[nH]c(/C=C/c3ccc(Cl)cc3F)nc2c1 [Cpd 339, (E)-2-{2-[2-(4-chloro-2-fluoro-phenyl)-vinyl]-1H-benzimidazol-5-yl}-N-methyl-benzenesulfonamide]	27	99
CC(=O)Nc1ccccc1-c1ccc2[nH]c(/C=C/c3ccc(F)c(F)c3)nc2c1 [Cpd 24, (E)-N-(2-{2-[2-(3,4-difluoro-phenyl)-vinyl]-1H-benzimidazol-5-yl}-phenyl)-acetamide]		8
Nc1ccccc1-c1ccc2[nH]c(/C=C/c3ccc(C(F)(F)F)cc3)nc2c1 [Cpd 465, (E)-2-{2-[2-(4-trifluoromethyl-phenyl)-vinyl]-1H-benzimidazol-5-yl}-phenylamine]	363	75
CC(=O)c1ccccc1-c1ccc2[nH]c(/C=C/c3ccc(OC(F)(F)F)cc3)nc2c1 [Cpd 20, (E)-1-(2-{2-[2-(4-trifluoromethoxy-phenyl)-vinyl]-1H-benzimidazol-5-yl}-phenyl)-ethanone]	320	
CNS(=O)(=O)c1ccccc1-c1ccc2[nH]c(/C=C/c3cccc(Cl)c3F)nc2c1 [Cpd 335, (E)-2-{2-[2-(3-chloro-2-fluoro-phenyl)-vinyl]-1H-benzimidazol-5-yl}-N-methyl-benzenesulfonamide]	47	100
CNS(=O)(=O)c1ccccc1-c1ccc2[nH]c(/C=C/c3ccc(NC(C)=O)cc3)nc2c1 [Cpd 452, (E)-N-(4-{2-[5-(2-methylsulfamoyl-phenyl)-1H-benzimidazol-2-yl]-vinyl}-phenyl)-acetamide]		5
NS(=O)(=O)c1ccccc1-c1ccc2[nH]c(/C=C/c3cc(C(F)(F)F)ccc3C(F)(F)F)nc2c1 [Cpd 374, (E)-2-{2-[2-(2,5-bis-trifluoromethyl-phenyl)-vinyl]-1H-benzimidazol-5-yl}-benzenesulfonamide]	34	99
CNS(=O)(=O)c1ccccc1-c1ccc2[nH]c(/C=C/c3cc(C(F)(F)F)cc(C(F)(F)F)c3)nc2c1 [Cpd 333, (E)-2-{2-[2-(3,5-bis-trifluoromethyl-phenyl)-vinyl]-1H-benzimidazol-5-yl}-N-methyl-benzenesulfonamide]	27	98
CNS(=O)(=O)c1ccccc1-c1ccc2[nH]c(/C=C/c3ccc(F)c(C(F)(F)F)c3)nc2c1 [Cpd 331, (E)-2-{2-[2-(4-fluoro-3-trifluoromethyl-phenyl)-vinyl]-1H-benzimidazol-5-yl}-N-methyl-benzenesulfonamide]	43	97
CCOc1cccc(/C=C/c2nc3cc(-c4ccccc4S(N)(=O)=O)ccc3[nH]2)c1 [Cpd 425, (E)-2-{2-[2-(3-ethoxy-phenyl)-vinyl]-1H-benzimidazol-5-yl}-benzenesulfonamide]		2
CS(=O)(=O)c1ccc(CCc2nc3cc(-c4ccccc4S(N)(=O)=O)ccc3[nH]2)cc1 [Cpd 145, 2-{2-[2-(4-methanesulfonyl-phenyl)-ethyl]-1H-benzimidazol-5-yl}-benzenesulfonamide]		19

Further lines, results first:

IC50 [nM]	inhibition at 1 µM [%]	SMILES
27	98	CNS(=O)(=O)c1ccccc1-c1ccc2[nH]c(/C=C/c3ccc(F)c(F)c3)nc2c1 [Cpd 329, (E)-2-{2-[2-(3,4-difluoro-phenyl)-vinyl]-1H-benzimidazol-5-yl}-N-methyl-benzenesulfonamide]
4	96	CC(C)c1ccc(CCc2nc3cc(-c4ccccc4S(N)(=O)=O)ccc3[nH]2)cc1 [Cpd 442, 2-{2-[2-(4-isopropyl-phenyl)-ethyl]-1H-benzimidazol-5-yl}-benzenesulfonamide]
13	101	CNS(=O)(=O)c1ccccc1-c1ccc2[nH]c(/C=C/c3ccc(OC(F)(F)F)cc3)nc2c1 [Cpd 345, (E)-N-methyl-2-{2-[2-(4-trifluoromethoxy-phenyl)-vinyl]-1H-benzimidazol-5-yl}-benzenesulfonamide]
3	97	CN(C)S(=O)(=O)c1ccccc1-c1ccc2[nH]c(CCc3ccc(C(F)(F)F)cc3)nc2c1 [Cpd 399, N,N-dimethyl-2-{2-[2-(4-trifluoromethyl-phenyl)-ethyl]-1H-benzimidazol-5-yl}-benzenesulfonamide]
5	99	CC(C)(O)c1ccccc1-c1ccc2[nH]c(C#Cc3ccc(C(F)(F)F)cc3)nc2c1 [Cpd 492, 2-{2-[2-(4-trifluoromethyl-phenylethynyl)-1H-benzimidazol-5-yl]-phenyl}-propan-2-ol]
8	100	NS(=O)(=O)c1ccccc1-c1ccc2[nH]c(/C=C/c3ccc(F)cc3F)nc2c1 [Cpd 357, (E)-2-{2-[2-(2,4-difluoro-phenyl)-vinyl]-1H-benzimidazol-5-yl}-benzenesulfonamide]
15	99	NS(=O)(=O)c1ccccc1-c1ccc2[nH]c(/C=C/c3cccc(C(F)(F)F)c3F)nc2c1 [Cpd 368, (E)-2-{2-[2-(2-fluoro-3-trifluoromethyl-phenyl)-vinyl]-1H-benzimidazol-5-yl}-benzenesulfonamide]
16	100	NS(=O)(=O)c1ccccc1-c1ccc2[nH]c(CCc3cccc(C(F)(F)F)c3)nc2c1 [Cpd 175, 2-{2-[2-(3-trifluoromethyl-phenyl)-ethyl]-1H-benzimidazol-5-yl}-benzenesulfonamide]
6	100	NS(=O)(=O)c1ccccc1-c1ccc2[nH]c(CCc3ccc(C(F)(F)F)cc3)nc2c1 [Cpd 130, 2-{2-[2-(4-trifluoromethyl-phenyl)-ethyl]-1H-benzimidazol-5-yl}-benzenesulfonamide]

From patent publication US7951829B2, “Benzimidazole modulators of VR1” (Janssen Pharmaceutica NV, priority 2006, dated 2011)
